Values belong to the compound of their own block, whether it stands above or below them. The source made the active and inactive calls. The calls are words filed in the database; no cut-off is given here.
Tests used:
[1] = tested on: HUVEC; assay: Antiangiogenic activity in HUVEC co-cultured with vascular smooth muscle cells assessed as inhibition of network formation at 1.8 to 16 uM after 72 hrs; assay type: functional, cell-based; conditions: Homo sapiens
[2] = tested on: HUVEC; assay: Cytotoxicity against HUVEC co-cultured with vascular smooth muscle cells assessed as rounded-up, unconnected and unicellular morphology phenotype; assay type: cell-based; conditions: human
[3] = Apparent permeability of the compound assessed as membrane permeation by PAMPA; assay type: ADME
[4] = Permeability of the compound assessed as membrane retention by PAMPA; assay type: ADME
[5] = tested on: Liver microsomes; assay: Metabolic stability of the compound in human liver microsomes assessed as compound remaining; assay type: ADME, Microsome
[6] = species on record: Danio rerio; assay: Toxicity in embryos of zebrafish assessed as induction of growth malformation at 0.5 to 2 uM treated 16 hrs post fertilization measured after 24 hrs; assay type: organism-based; conditions: in vivo
[7] = tested on: HUVEC; assay: Cytotoxicity against HUVEC co-cultured with vascular smooth muscle cells assessed as cell death at 16 uM; assay type: cell-based; conditions: human
[8] = target: Proto-oncogene tyrosine-protein kinase Src (Homo sapiens) (UniProt P12931); assay: Inhibition of c-Src at 100 uM
[9] = target: T1, Vascular endothelial growth factor receptor 2 (Homo sapiens, UniProt P35968); assay: Inhibition of VEGFR2 expressed in porcine aortic endothelial cells; assay type: cell-based, Endothelial cell
[10] = target: Epidermal growth factor receptor (Homo sapiens) (UniProt P00533); assay: Inhibition of HER-1 at 10 uM
[11] = target: T1, Vascular endothelial growth factor receptor 2; assay: Inhibition of VEGFR-2 at 10 uM
[12] = target: Receptor-type tyrosine-protein kinase FLT3 (Homo sapiens) (UniProt P36888); assay: Inhibition of Flt-3 at 10 uM
[13] = target: Insulin-like growth factor 1 receptor (Homo sapiens) (UniProt P08069); assay: Inhibition of IGF-1R at 10 uM
[14] = species on record: Homo sapiens; assay: Inhibition of PKA at 10 uM
[15] = target: Cyclin-dependent kinase 2 (Homo sapiens) (UniProt P24941); assay: Inhibition of CDK2A at 10 uM
[16] = species on record: Homo sapiens; assay: Inhibition of PKB at 10 uM
[17] = tested on: Serine/threonine-protein kinase B-raf (Homo sapiens), P15056 [V600E]; assay: Inhibition of B-Raf V599E mutant at 10 uM
[18] = target: Angiopoietin-1 receptor (Homo sapiens) (UniProt Q02763); assay: Inhibition of Tek at 10 uM
[19] = target: Proto-oncogene tyrosine-protein kinase Src (Homo sapiens) (UniProt P12931); assay: Inhibition of Src at 10 uM
[20] = target: Hepatocyte growth factor receptor (Homo sapiens) (UniProt P08581); assay: Inhibition of Met at 10 uM
[21] = target: Proto-oncogene tyrosine-protein kinase receptor Ret (Homo sapiens) (UniProt P07949); assay: Inhibition of Ret at 10 uM
[22] = target: Tyrosine-protein kinase JAK2 (Homo sapiens) (UniProt O60674); assay: Inhibition of Jak2 at 10 uM
[23] = target: Ephrin type-B receptor 4 (Homo sapiens) (UniProt P54760); assay: Inhibition of EphB4 at 10 uM
[24] = species on record: Homo sapiens; assay: Inhibition of FGFR3 […] mutant at 10 uM
[25] = target: Tyrosine-protein kinase receptor UFO (Homo sapiens) (UniProt P30530); assay: Inhibition of Axl at 10 uM
[26] = target: Focal adhesion kinase 1 (Homo sapiens) (UniProt Q05397); assay: Inhibition of FAK at 10 uM
[27] = target: 3-phosphoinositide-dependent protein kinase 1 (Homo sapiens) (UniProt O15530); assay: Inhibition of PDK1 at 10 uM
[28] = tested on: HUVEC; assay: Antiangiogenic activity in HUVEC co-cultured with vascular smooth muscle cells assessed as inhibition of network formation at 10 to 15 uM after 72 hrs; assay type: functional, cell-based; conditions: Homo sapiens
[29] = tested on: HUVEC; assay: Antiangiogenic activity in HUVEC co-cultured with vascular smooth muscle cells assessed as inhibition of network formation at 1.8 after 72 hrs; assay type: functional, cell-based; conditions: Homo sapiens
[30] = tested on: HUVEC; assay: Antiangiogenic activity in HUVEC co-cultured with vascular smooth muscle cells assessed as inhibition of cell growth at […] after 72 hrs; assay type: functional, cell-based; conditions: Homo sapiens
[31] = tested on: HUVEC; assay: Antiangiogenic activity in HUVEC co-cultured with vascular smooth muscle cells assessed as inhibition of network formation at […] after 72 hrs; assay type: functional, cell-based; conditions: Homo sapiens
[32] = tested on: HUVEC; assay: Antiangiogenic activity in HUVEC co-cultured with vascular smooth muscle cells assessed as inhibition of network formation at 1.8 to 15 uM after 72 hrs; assay type: functional, cell-based; conditions: Homo sapiens
[33] = target: Tyrosine-protein kinase ABL1 (Homo sapiens, UniProt P00519); assay: Inhibition of Abl

Proto-oncogene tyrosine-protein kinase Src (Homo sapiens), sequence (P12931 2-536 limits assumed): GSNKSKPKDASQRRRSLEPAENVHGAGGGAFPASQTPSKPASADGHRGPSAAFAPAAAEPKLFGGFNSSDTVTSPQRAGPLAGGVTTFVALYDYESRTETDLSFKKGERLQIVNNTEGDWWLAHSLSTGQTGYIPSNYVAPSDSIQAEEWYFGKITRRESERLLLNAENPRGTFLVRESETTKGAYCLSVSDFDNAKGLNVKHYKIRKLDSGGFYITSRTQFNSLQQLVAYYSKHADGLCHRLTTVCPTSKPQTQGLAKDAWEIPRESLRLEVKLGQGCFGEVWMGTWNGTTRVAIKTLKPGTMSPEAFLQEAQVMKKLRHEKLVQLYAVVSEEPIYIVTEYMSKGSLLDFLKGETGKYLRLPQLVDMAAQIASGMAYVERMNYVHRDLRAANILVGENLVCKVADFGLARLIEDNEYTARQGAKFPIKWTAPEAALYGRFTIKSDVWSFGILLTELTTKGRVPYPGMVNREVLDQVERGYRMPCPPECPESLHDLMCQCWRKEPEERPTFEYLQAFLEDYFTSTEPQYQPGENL
T1 sequence (P35968 whole entry): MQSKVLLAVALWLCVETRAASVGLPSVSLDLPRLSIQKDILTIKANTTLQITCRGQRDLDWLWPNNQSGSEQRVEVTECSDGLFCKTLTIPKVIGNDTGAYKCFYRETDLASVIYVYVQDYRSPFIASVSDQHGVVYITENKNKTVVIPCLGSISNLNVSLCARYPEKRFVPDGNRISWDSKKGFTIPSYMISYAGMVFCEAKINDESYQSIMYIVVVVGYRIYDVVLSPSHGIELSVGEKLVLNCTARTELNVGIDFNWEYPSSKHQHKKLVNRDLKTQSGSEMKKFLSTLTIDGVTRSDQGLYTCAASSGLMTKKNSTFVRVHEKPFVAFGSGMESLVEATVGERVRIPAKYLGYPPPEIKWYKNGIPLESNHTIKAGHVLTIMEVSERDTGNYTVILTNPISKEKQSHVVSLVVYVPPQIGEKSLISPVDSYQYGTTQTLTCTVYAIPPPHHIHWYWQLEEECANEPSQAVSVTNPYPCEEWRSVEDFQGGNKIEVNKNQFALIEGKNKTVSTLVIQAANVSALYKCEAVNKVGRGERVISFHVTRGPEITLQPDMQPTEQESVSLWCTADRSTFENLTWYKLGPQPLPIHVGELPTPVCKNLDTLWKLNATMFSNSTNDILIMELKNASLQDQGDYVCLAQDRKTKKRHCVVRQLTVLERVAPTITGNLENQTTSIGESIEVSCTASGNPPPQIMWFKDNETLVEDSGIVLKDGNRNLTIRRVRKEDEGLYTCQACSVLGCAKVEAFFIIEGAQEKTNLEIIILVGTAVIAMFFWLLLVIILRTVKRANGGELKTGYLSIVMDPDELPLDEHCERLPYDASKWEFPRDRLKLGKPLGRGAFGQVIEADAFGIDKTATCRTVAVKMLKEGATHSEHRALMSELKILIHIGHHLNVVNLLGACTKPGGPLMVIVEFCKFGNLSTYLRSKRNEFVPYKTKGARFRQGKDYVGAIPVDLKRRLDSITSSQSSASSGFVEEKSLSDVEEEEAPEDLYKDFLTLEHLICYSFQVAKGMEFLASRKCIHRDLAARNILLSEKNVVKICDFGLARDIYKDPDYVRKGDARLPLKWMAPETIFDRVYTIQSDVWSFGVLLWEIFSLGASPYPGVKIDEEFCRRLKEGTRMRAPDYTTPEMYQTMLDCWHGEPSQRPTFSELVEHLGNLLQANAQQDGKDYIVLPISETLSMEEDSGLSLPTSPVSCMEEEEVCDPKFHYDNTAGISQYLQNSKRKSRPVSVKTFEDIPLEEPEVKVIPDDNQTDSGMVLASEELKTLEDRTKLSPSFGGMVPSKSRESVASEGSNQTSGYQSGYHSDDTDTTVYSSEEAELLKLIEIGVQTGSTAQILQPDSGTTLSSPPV
Tyrosine-protein kinase receptor UFO (Homo sapiens), sequence (P30530 whole entry): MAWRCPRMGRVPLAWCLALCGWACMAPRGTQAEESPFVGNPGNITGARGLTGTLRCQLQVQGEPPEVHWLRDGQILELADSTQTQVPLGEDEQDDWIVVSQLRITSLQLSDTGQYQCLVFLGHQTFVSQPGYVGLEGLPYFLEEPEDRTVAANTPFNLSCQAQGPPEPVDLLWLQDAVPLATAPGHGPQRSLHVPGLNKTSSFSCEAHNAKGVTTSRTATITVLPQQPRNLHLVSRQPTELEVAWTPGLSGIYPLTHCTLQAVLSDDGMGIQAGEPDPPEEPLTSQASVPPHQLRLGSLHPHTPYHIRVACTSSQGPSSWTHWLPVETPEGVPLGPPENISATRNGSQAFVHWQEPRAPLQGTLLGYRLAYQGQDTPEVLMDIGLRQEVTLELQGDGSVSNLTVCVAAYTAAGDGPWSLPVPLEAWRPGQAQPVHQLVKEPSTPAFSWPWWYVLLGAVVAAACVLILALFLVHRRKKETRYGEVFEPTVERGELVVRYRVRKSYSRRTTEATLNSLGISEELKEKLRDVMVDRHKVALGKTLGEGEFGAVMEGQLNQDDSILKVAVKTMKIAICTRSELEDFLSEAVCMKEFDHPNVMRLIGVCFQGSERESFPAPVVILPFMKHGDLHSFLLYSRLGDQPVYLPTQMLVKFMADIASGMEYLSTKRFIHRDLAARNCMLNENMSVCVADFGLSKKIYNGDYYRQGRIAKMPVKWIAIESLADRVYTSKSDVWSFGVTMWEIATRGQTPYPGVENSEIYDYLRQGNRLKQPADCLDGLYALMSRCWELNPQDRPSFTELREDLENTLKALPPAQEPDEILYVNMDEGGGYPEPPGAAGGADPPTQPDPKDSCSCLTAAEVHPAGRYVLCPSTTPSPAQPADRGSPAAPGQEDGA
Proto-oncogene tyrosine-protein kinase receptor Ret (Homo sapiens), sequence (P07949 whole entry): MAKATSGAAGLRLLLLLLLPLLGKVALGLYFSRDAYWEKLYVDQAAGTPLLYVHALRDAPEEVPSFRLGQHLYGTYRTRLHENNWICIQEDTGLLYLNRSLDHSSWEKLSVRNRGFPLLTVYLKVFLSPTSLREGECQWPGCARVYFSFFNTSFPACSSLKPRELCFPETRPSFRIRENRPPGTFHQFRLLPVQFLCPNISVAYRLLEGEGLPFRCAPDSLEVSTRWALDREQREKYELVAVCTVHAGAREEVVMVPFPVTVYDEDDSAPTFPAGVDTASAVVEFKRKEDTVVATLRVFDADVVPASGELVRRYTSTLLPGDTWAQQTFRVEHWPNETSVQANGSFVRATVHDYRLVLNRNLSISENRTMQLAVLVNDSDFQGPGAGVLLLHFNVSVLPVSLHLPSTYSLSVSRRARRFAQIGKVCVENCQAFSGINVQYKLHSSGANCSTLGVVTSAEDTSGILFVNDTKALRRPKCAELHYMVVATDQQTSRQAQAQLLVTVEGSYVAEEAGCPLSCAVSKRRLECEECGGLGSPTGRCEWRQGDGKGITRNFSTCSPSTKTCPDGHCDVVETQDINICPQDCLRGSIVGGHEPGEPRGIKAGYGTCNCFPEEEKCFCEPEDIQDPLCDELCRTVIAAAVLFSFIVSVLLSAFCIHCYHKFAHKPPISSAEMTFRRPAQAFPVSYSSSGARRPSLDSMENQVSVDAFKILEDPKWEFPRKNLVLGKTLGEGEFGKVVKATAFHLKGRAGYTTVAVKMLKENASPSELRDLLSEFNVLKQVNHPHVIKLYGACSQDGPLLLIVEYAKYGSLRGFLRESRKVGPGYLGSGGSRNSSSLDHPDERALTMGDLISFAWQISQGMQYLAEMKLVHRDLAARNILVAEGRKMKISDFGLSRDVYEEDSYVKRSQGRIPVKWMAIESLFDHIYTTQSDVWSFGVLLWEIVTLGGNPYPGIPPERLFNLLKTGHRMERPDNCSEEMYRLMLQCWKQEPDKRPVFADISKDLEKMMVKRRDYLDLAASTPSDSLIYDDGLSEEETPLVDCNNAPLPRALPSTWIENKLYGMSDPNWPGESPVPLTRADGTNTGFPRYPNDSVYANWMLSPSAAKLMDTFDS
Receptor-type tyrosine-protein kinase FLT3 (Homo sapiens), sequence (P36888 whole entry): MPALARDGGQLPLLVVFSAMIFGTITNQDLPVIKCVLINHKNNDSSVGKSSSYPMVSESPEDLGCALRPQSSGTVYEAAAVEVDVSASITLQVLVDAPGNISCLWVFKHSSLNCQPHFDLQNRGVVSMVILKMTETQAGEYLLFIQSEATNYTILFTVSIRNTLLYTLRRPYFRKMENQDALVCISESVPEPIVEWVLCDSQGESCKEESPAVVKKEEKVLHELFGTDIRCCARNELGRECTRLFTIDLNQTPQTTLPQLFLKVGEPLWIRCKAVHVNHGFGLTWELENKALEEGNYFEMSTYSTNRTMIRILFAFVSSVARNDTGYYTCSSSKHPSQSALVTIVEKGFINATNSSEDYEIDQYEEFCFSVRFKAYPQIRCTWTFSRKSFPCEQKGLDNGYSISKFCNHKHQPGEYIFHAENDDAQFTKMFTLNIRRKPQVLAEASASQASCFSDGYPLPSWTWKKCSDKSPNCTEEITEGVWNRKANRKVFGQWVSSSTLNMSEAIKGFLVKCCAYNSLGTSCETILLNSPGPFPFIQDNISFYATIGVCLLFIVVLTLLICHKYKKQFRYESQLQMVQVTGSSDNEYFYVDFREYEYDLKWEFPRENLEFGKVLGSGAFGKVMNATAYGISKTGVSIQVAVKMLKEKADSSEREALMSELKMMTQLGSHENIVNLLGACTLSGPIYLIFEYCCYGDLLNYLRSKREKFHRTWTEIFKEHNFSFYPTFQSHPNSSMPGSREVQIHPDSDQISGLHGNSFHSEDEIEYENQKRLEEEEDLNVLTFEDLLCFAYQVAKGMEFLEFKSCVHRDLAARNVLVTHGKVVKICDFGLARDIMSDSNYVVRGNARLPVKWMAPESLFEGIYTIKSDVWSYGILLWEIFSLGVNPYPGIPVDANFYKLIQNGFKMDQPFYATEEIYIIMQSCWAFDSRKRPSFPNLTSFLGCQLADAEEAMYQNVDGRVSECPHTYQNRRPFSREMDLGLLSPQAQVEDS

SMILES: Clc1cccc(Nc2nc(SCCN3CCOCC3)nc3c2cnn3CC(Cl)c2ccccc2)c1 (stereo unspecified)
inhibition [1]: Active | Activity [2]: Non-toxic | Papp [3]: 3 ×10⁻⁶ cm/s | permeability [4]: 47.7% | Stability [5]: 92.5% | Activity [6]: Toxic

SMILES: CSc1nc(NCCc2ccccc2)c2cnn(CC(Cl)c3ccccc3)c2n1 (stereo unspecified)
Activity [7]: Toxic

SMILES: Cc1cn(-c2cc(NC(=O)c3ccc(C)c(Nc4nccc(-c5cccnc5)n4)c3)cc(C(F)(F)F)c2)cn1
inhibition [28]: Active | inhibition [29]: inactive | inhibition [30]: Active | inhibition [31]: inactive

SMILES: Cc1nc(Nc2ncc(C(=O)Nc3c(C)cccc3Cl)s2)cc(N2CCN(CCO)CC2)n1
inhibition [32]: Active | inhibition [30]: Active | inhibition [31]: inactive

The next lines start with results.

inhibition [8]: inactive
SMILES: ClC(Cn1ncc2c(NCCc3ccccc3)nc(SCCN3CCOCC3)nc21)c1ccccc1 (stereo unspecified)

IC50 [9]: 1 µM | permeability [4]: 6% | Stability [5]: 82% | inhibition [10]: 56% | inhibition [11]: 29% | inhibition [12]: 13% | inhibition [13]: 0% | inhibition [14]: 0% | inhibition [15]: 8% | inhibition [16]: 17% | inhibition [17]: 42% | inhibition [18]: 6% | inhibition [19]: 89% | inhibition [20]: 10% | inhibition [21]: 5% | inhibition [22]: 6% | inhibition [23]: 25% | inhibition [24]: 0% | inhibition [25]: 8% | inhibition [26]: 0% | inhibition [27]: 0%
SMILES: ClC(Cn1ncc2c(NCc3ccccc3)ncnc21)c1ccccc1 (stereo unspecified)
inhibition [1]: Active | Activity [2]: Non-toxic | Activity [6]: Toxic

Ki [33]: 9.75 µM | inhibition [8]: inactive
SMILES: C(=C/n1ncc2c(NCCc3ccccc3)ncnc21)/c1ccccc1

Source: ChEMBL document CHEMBL2069178, “A combined targeted/phenotypic approach for the identification of new antiangiogenics agents active on a zebrafish model: from in silico screening to cyclodextrin formulation” (Bioorg Med Chem Lett, 2012)
